{
  "source": "patent US20030092691A1",
  "about": "(priority 2001, published 2003)",
  "test": "Study of solubility of micronized progesterone in various oils (concentration at saturation)",
  "assay_type": "physicochemical",
  "conditions": "in refined olive oil; one hour stirring at room temperature, filtered 0.45 μm",
  "protocol": "The saturated solutions were then prepared as follows: The saturated solutions in each oil were maintained for one hour with stirring at room temperature, and were then filtered on a nylon filter syringe with a diameter of 25 mm, at 0.45 μm.",
  "data": [
    {"compound": "CC(=O)[C@H]1CC[C@H]2[C@@H]3CCC4=CC(=O)CC[C@]4(C)[C@H]3CC[C@]12C", "note": "[Micronized progesterone, progesterone]", "values": [
      {"measurement": "CONCENTRATION AT SATURATION", "result": 19560, "unit": "µg/mL"}
    ]}
  ]
}
